Read-outs that look alike come from different tables or passages of the source. No end group written: not given here.
Legend:
TcdB [1] = biological target: T1, TcdB (Clostridioides difficile, UniProt P18177); conditions: Angie peptides 100 µM, α-defensin-6 6 µM, TcdB 50 ng in 25 µl PBS, 30 min, 37 °C, supernatant/pellet immunoblot; n = 3-4
Procedure: For the precipitation analysis, TcdB (50 ng equals 2 ng/µl) and inhibitors, α-defensin-6 (6 µM) and Angie peptides or water (solvent control) were incubated for 30 min in a total volume of 25 µl PBS. Next, the samples were centrifuged for 20 min, 14,000 rpm at 4 °C for separation of supernatant and pellet fraction. […] TcdB was detected using an anti-TcdB antibody (1:1000, Anti-Clostridium difficile Toxin B antibody, Abcam, Cambridge, UK).

TcdB [2] = biological target: T1, TcdB; conditions: 100 µM peptide, 200 pM TcdB, added simultaneously, FCS-free medium, 7 h, 37 °C; n = 9
Target sequence in this assay (P18177 2-2366 limits assumed): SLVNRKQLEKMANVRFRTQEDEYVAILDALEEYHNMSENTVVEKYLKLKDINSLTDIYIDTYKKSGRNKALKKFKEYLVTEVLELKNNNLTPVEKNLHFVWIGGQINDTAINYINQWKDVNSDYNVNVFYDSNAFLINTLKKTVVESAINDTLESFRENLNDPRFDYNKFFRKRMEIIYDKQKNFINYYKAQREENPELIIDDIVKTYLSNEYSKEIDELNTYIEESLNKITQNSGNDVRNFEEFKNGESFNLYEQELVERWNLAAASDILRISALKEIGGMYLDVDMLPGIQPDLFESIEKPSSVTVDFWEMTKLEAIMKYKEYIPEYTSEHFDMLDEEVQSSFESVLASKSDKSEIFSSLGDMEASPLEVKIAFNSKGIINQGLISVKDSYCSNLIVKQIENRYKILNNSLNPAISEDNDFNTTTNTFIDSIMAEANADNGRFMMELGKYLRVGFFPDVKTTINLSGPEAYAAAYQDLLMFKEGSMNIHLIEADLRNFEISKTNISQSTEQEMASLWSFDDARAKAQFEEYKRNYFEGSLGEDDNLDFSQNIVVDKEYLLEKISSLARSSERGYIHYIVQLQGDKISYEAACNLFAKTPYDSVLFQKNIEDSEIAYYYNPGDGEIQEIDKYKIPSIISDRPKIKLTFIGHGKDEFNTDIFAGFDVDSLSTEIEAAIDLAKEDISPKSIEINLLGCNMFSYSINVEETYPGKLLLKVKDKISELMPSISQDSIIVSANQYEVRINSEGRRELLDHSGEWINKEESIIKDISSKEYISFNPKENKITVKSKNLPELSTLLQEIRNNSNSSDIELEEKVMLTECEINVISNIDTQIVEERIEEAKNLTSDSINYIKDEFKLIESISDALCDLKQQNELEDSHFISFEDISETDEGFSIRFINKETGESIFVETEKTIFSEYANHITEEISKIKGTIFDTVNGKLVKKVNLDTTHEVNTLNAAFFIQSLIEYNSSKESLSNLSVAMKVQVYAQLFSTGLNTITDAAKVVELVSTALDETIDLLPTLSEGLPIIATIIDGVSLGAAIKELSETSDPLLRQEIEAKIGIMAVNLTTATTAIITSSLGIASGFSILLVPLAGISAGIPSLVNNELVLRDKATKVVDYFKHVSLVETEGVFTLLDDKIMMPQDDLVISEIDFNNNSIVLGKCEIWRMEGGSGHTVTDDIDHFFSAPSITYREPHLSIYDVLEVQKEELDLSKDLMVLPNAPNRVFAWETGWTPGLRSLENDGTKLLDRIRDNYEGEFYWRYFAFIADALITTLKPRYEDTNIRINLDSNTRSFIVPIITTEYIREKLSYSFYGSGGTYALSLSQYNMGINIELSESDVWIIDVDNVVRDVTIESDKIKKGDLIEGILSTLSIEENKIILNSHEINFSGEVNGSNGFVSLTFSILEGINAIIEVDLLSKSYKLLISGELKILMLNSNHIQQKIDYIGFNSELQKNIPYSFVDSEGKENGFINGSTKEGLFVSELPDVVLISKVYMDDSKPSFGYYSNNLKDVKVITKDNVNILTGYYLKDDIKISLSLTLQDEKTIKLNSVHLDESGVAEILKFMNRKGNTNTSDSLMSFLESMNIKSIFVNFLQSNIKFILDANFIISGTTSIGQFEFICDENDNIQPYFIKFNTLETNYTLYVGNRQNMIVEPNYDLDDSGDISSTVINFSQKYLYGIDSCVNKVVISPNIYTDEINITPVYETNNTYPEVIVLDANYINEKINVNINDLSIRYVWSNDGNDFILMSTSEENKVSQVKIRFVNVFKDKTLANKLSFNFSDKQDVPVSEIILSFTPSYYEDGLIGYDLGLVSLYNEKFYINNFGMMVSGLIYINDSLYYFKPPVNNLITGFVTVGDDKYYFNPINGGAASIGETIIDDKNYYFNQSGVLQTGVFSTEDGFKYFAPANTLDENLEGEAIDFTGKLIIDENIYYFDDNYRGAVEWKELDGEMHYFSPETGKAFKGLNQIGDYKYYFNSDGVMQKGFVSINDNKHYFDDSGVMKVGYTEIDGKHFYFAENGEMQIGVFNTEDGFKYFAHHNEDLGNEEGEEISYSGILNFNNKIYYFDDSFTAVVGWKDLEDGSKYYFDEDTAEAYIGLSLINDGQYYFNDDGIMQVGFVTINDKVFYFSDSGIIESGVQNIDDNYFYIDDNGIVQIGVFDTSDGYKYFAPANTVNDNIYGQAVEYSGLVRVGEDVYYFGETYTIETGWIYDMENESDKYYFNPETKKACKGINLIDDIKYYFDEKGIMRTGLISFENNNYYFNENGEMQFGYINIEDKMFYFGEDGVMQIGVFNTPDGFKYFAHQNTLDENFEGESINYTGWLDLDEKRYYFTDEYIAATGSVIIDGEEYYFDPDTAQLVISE

C. difficile = conditions: previously shown; cited from earlier work
Procedure: Here, initially higher concentrations of the Angie peptides were tested and inhibition zones around the Angie peptides and the positive control were measured (Supplementary Fig. 1).

TcdB [3] = biological target: T1, TcdB; assay: cell-based
Target sequence in this assay (P18177 2-2366 limits assumed): as above

in vitro = in vitro ADME, human; conditions: 37 °C
Procedure: The half-life of Angie 5 in plasma was calculated according to a work by Freisem et al., with minor modifications. A sample (0.5 ml) of human plasma was spiked with 20 µM Angie 5 and incubated at 37 °C. Aliquots (50 µl) were separated at 0, 15, 30, 60, and 120 min, respectively, and mixed with 250 µl 0.1% TFA in acetonitrile at − 20 °C. The mixture was centrifuged at 13,000 rpm for 30 s, and 150 µl of the supernatant was mixed with 150 µl 20% acetic acid in ice. The samples were analyzed with an Axima Confidence MALDI-TOF MS (Shimadzu) in linear mode using exactly the same measurement conditions for all samples spotted on a 384-well plate. Wells were coated with 0.5 µl of 10 mg/ml CHCA previously dissolved in TFA/water/acetonitrile/2-propanol (2.5/47.5/25/25, v/v), and the solvent was allowed to evaporate. Then, each sample (0.5 µl), previously mixed with matrix (0.5 µl), was applied onto the dry pre-coated well, and the solvent was allowed to evaporate. Laser shots were automatically done following a regular circular raster of a diameter of 2000 μm and spacing of 200 μm on each well; 100 profiles were acquired per sample, and 20 shots were accumulated per profile. An accelerating voltage of 20 kV was applied to the ion source. […] The half-life was calculated using GraphPad Prism version 10.3.1 for Windows, GraphPad Software, Boston, Massachusetts USA, www.graphpad.com. […]

zebrafish embryos = conditions: in vivo; cited from earlier work

In the case of “α-defensin-6: human peptide, positive control for precipitation of TcdB (PeptaNova)”, the “Precipitate formation with TcdB” value (TcdB [1]) is reported as “precipitate formation”.

With KLINTFIHGNKRSIKAI [Angie 7] the “Protection from TcdB-mediated cell rounding, CaCo-2 cells” value (from here on “Protection”) (TcdB [2]) was “did not inhibit”.

For KDINTFIHGNKRSIKAI [reference Angie], the “Protection” value (TcdB [2]) was “did not inhibit”.

In the case of “LL-37: antimicrobial peptide used as positive control in the radial diffusion assay (Anaspec) (LLGDFFRKSKEKIGKEFKRIVQRIKDFLRNLVPRTES; Antibacterial peptide LL-37; UniProt P49913 134-170, looked up)”, the “Activity against C. difficile” value (C. difficile) is listed as “activity against C. difficile”.

In the case of KGINTFIHGNKRSIKAI [Angie 6], the “Protection” value (TcdB [2]) is reported as “did not inhibit”.

In the case of KFINIFIHGNKRSIKAI [Angie 5], the IC50 (TcdB [3]) is reported as 46.3 µM, the IC50 (TcdB [3]; IC50 of TcdB-mediated cell rounding, Vero cells, 10 pM TcdB, no preincubation, 3 h after addition, FCS-free medium, ± SEM 1.08 µM, four-parameter fit) is reported as 40.9 µM and the “K of one-phase decay curve in human plasma” value (in vitro; fit of signal area vs. time, human plasma, 20 µM, MALDI-TOF) is reported as 0.1274. The half-life at 20 µM (in vitro; human plasma spiked with 20 µM, aliquots at 0, 15, 30, 60, 120 min, 0.1% TFA in acetonitrile, MALDI-TOF MS peak area, one-phase decay fit, n = 3 per time point) was 5.44 min and the “Protection” value (TcdB [2]) was “protected”.

In the case of KAINTFIHGNKISIKAI [Angie 1], the “Toxicity for zebrafish embryos” value (zebrafish embryos) is given as “not toxic”.

Source: publication PMC12209146 (Cellular and Molecular Life Sciences: CMLS, 2025)
